This is an account of results in US20150329558A1, “FUSED HETEROCYCLIC COMPOUNDS AS ION CHANNEL MODULATORS” (Gilead Sciences, Inc., priority 2011, published 2015).

Like-named read-outs stand apart in the source and are kept apart here.

Data set [1] can be described thus: Microsomal stability assay, dog. In kind it is in vitro ADME. Conditions: metabolic stability, dog liver microsomes 0.5 mg/mL, substrate 3 uM. In short, it runs like this:
(§1)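 Liver microsomes at 0.5 mg/mL protein in 100 mM KPO4 buffer, incubated with 3 uM compound and NADPH-regenerating system, run in duplicate. Samples taken at 2, 12, 25, 45 and 65 min and quenched in MeOH/ACN/water before analysis.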

The nature of data set [2]: Microsomal stability assay, rat. The data set is classed as in vitro ADME. Conditions: metabolic stability, rat liver microsomes 0.5 mg/mL, substrate 3 uM. In a few lines:
as §1

For data set [3], the target named is wild-type human cardiac sodium channel, hNav1.5 (late INa) (Homo sapiens, UniProt Q14524). Kind of data set: Late INa screening assay (QPatch whole cell patch clamp). In kind it is cell-based. In short, it runs like this: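 HEK293 cells stably expressing hNav1.5 alpha subunit without beta subunits, QPatch automated whole-cell clamp at 23-25° C, CsF-based internal solution pH 7.4. Late INa induced by 10 μM tefluthrin; 250 ms steps to −20 mV from −120 mV at 0.1 Hz, compounds at 1 μM. Percent block of mean current 225–250 ms into the step.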

A short description of data set [4]: Microsomal stability assay, human. Conditions: metabolic stability, human liver microsomes 0.5 mg/mL, substrate 3 uM. The data set is classed as in vitro ADME. In short, it runs like this: as §1
A further data set deals with hERG potassium channel (Homo sapiens, UniProt Q12809). Kind of data set: hERG screening assay (PatchXpress, CHO cells). The data set is classed as cell-based. To be noted: % inhibition at 1 μM. The method, then:
Compounds were also tested for their effect to block the hERG K^+ channel.
Compounds were screened to test their activity in blocking the hERG potassium channel at AVIVA Biosciences (San Deigo, Calif., USA). The hERG channel is heterologously expressed in a CHO (Chinese Hamster Ovary) cell line. Cells were maintained with standard tissue culture procedures and stable channel expression was maintained with 500 μg/mL G418 in the culture medium. Cells were harvested for testing on the PatchXpress 7000A automated patch clamp with Accumax (Innovative Cell Technologies, San Diego, Calif.) to isolate single cells.
The following solutions were used for electrophysiological recordings. The external solution contained: 2 mM CaCl2; 2 mM MgCl2; 4 mM KCl; 150 mM NaCl; 10 mM Glucose; 10 mM HEPES (pH 7.4 with 1M NaOH; osmolarity, ˜310 mOsm). The internal solution contained: 140 mM KCl, 10 mM MgCl2, 6 mM EGTA, 5 mM HEPES, 5 mM ATP (pH adjusted to 7.25 with KOH; osmolarity, ˜295 mOsm).
hERG channels were activated when the voltage was first stepped to −50 mV for 300 ms from the −80 mV holding potential and then stepped to +20 mV for 5 seconds. At +20 mV the channels open and then largely inactivate, so the currents are relatively small. Upon returning to −50 mV from +20 mV, hERG currents transiently become much larger as inactivation is rapidly removed and then the channel closes. The first step to −50 mV for 300 ms was used as a baseline for measuring the peak amplitude during the step to −50 mV after channel activation. The peak tail current at −50 mV was measured both under control conditions and after addition of compound, each cell serving as its own control.
All compounds were prepared as 10 mM DMSO stocks in glass vials. Stock solutions were mixed by vigorous vortexing and sonication for about 2 minutes at room temperature. For testing, compounds were diluted in glass vials using an intermediate dilution step in pure DMSO and then further diluted to working concentrations in external solution. Dilutions were prepared no longer than 20 minutes before use.
For the electrophysiological recordings, after achieving the whole-cell configuration, cells were monitored for 90 seconds to assess stability and washed with external solution for 66 seconds. The voltage protocol described above was then applied to the cells every 12 seconds and throughout the whole procedure. Only cells with stable recording parameters and meeting specified health criteria were allowed to enter the compound addition procedure.
External solution containing 0.1% DMSO (vehicle) was applied to the cells first to establish the control peak current amplitude. After allowing the current to stabilize for 3 to 5 minutes, 1 μM and then 10 μM test compounds were applied. Each compound concentration was added 4 times and cells were kept in test solution until the effect of the compound reached steady state or for a maximum of 12 minutes. After addition of test compound, a positive control (1 μM Cisapride) was added and must block >95% of the current for the experiment to be considered valid. Washout in the external solution compartment was performed until the recovery of the current reached steady state.

The next data set deals with T1, hNav1.1 (Homo sapiens, UniProt P35498).
T1 construct: expressed in transfected cells; host or cells: HEK293, transient transfection (α1:β1:β2 = 10:1:1)
In words: Nav1.1 use-dependent block, whole-cell voltage clamp. The data set is classed as cell-based. Conditions: use-dependent block 10 Hz, read-out: NAv1.1*-CHAN TEST-UDB-10 HZ-.

A further data set has as its target T2, Human Nav1.2 (Homo sapiens, UniProt Q99250).
T2 construct: expressed in transfected cells
Kind of data set: Nav1.2 use-dependent block, whole-cell voltage clamp. In kind it is cell-based. To be noted: use-dependent block 10 Hz, read-out: NAv1.2*-CHAN TEST-UDB-10 HZ-. From the text: Wild-type (WT) cDNA stably transfected in Chinese hamster ovary (CHO) cells is used to record INa. Unless otherwise noted, all reagents are purchased from Sigma-Aldrich (St Louis, Mo., U.S.A.).
Whole-cell voltage-clamp recordings are used to measure the biophysical properties of WT. Briefly, the pipette solution consists of (in mM) 110 CsF, 10 NaF, 20 CsCl, 2 EGTA, 10 HEPES, with a pH of 7.35 and osmolarity of 300 mOsmol/kg. The bath (control) solution contains in (mM): 145 NaCl, 4 KCl, 1.8 CaCl2, 1 MgCl2, 10 dextrose, 10 HEPES, with a pH of 7.35 and osmolarity of 310 mOsmol/kg. Cells are allowed to stabilize for 10 min after establishment of the whole-cell configuration before current is measured. Series resistance is compensated 90% to assure that the command potential is reached within microseconds with a voltage error <2 mV. Leak currents are subtracted by using an online P/4 procedure and all currents are low-pass Bessel filtered at 5 kHz and digitized at 50 kHz.
Tonic block of peak current is measured using a step to −10 mV (20 ms) from a holding potential of −120 mV (0.2 Hz). Use-dependent block of peak current is measured during pulse number 300 of a pulse train (−10 mV, 5 ms, 300 pulses, 10 Hz or 25 Hz) from a holding potential of −120 mV. Two sequential pulse train stimulations are averaged to obtain mean current traces for each recording condition, which are then used for offline subtraction and analysis.
For use-dependent studies, cells are stimulated with depolarizing pulse trains (−10 mV, 5 ms, 300 pulses, 10 and 25 Hz) from a holding potential of −120 mV. Currents are then normalized to the peak current recorded in response to the first pulse in each frequency train. For tonic block studies, peak current is evaluated in response to a 20 ms depolarization to −10 mV (0.2 Hz). Data analysis is performed using Clampfit 9.2 (Axon Instruments, Union City, Calif., U.S.A), Excel 2002 (Microsoft, Seattle, Wash., U.S.A.), and OriginPro 7.0 (OriginLab, Northampton, Mass., U.S.A) software. Results are presented as mean±SEM.
A stock solution of 10 mM compound of Formula I is prepared in 0.1 M HCl or DMSO. A fresh dilution of the compound of Formula I in the bath solution is prepared every experimental day and the pH is readjusted to 7.35 as necessary. The final DMSO concentration was kept at 0.1% in all solutions. Direct application of the perfusion solution to the clamped cell is achieved using the Perfusion Pencil system (Automate, Berkeley, Calif.). Direct cell perfusion is driven by gravity at a flow rate of 350 μL/min using a 250 micron tip. This system sequesters the clamped cell within a perfusion stream and enables complete solution exchange within 1 second. The clamped cell is perfused continuously starting immediately after establishing the whole-cell configuration. Control currents are measured during control solution perfusion.
Solutions are perfused for three minutes prior to current recordings to allow equilibrium (tonic) drug block. Tonic block of peak currents is measured from this steady-state condition. Three sequential current traces are averaged to obtain a mean current for each recording. The mean current traces are utilized for offline analysis. Use-dependent block of peak current is measured during pulse number 300 of the pulse train, (−10 mV, 5 ms, 300 pulses, 10 Hz) from a holding potential of −120 mV. Two sequential pulse train stimulations are averaged to obtain mean current traces for each recording condition, which are then used for offline subtraction and analysis. Where appropriate, concentration inhibition curves are fit with the Hill equation: I/Imax=1/[1+10̂(log IC50−I)*k], where IC50 is the concentration that produces half inhibition and k is the Hill slope factor.

Data set [5] addresses wild-type human cardiac sodium channel, hNav1.5 (peak INa) (Homo sapiens, UniProt Q14524). Kind of data set: Peak INa screening assay (tonic and use-dependent block). In kind it is cell-based. In a few lines:
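Whole-cell automated patch clamp, HEK293 stably expressing hNav1.5 alpha without beta subunits, 23-25° C, holding −100 mV; bath Na⁺ reduced to 20 mM, CsF-based intracellular pH 7.4. Test compound 1 μM; tonic block at 0.1 Hz, use-dependent block at 3 Hz, % peak block after rundown correction.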

Setting [6] is: % inhibition at 1 μM, read-out: NAv1.5*-LATE-.
The mark [7] stands for this setting: percent block of late INa, compound at 1 μM, 10 μM Tefluthrin, HEK293 hNav1.5, read-out: Late INa 1 μM.
[8] abbreviates: tonic block of peak INa, 0.1 Hz, 1 μM, read-out: Peak TB 1 μM.
Setting [9] is: use-dependent block of peak INa, 3 Hz, 1 μM, read-out: Peak UDB 1 μM.

hERG potassium channel, sequence (Q12809 whole entry): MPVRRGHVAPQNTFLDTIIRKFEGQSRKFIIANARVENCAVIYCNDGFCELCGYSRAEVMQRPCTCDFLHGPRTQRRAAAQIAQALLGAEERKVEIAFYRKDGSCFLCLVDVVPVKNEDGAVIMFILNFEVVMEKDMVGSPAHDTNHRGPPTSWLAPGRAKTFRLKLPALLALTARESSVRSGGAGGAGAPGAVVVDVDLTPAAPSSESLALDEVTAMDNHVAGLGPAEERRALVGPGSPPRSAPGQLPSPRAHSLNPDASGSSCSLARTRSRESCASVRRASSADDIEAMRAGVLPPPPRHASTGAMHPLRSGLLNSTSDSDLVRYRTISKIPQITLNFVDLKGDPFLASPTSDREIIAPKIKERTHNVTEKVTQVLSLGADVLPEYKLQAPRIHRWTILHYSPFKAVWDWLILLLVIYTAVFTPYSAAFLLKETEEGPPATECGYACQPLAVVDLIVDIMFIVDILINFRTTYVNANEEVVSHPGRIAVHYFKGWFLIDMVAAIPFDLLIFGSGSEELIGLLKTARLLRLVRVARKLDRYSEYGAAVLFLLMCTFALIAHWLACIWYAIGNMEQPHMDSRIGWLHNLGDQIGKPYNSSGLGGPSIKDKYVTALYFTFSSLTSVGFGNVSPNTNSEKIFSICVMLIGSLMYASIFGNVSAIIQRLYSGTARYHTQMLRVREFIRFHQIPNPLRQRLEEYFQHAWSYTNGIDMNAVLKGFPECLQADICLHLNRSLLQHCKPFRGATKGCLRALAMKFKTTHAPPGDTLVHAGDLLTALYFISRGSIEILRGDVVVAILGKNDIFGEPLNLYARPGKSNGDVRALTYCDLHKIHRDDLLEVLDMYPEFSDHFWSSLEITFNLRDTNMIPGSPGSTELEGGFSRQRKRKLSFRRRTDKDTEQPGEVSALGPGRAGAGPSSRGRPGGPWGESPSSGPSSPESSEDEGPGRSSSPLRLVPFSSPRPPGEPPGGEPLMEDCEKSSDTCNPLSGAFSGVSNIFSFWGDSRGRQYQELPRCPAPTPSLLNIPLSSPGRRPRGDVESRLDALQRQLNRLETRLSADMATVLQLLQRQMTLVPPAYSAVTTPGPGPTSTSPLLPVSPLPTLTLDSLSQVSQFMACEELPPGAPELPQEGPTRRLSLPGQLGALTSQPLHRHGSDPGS
wild-type human cardiac sodium channel, hNav1.5 (late INa), sequence (Q14524 whole entry): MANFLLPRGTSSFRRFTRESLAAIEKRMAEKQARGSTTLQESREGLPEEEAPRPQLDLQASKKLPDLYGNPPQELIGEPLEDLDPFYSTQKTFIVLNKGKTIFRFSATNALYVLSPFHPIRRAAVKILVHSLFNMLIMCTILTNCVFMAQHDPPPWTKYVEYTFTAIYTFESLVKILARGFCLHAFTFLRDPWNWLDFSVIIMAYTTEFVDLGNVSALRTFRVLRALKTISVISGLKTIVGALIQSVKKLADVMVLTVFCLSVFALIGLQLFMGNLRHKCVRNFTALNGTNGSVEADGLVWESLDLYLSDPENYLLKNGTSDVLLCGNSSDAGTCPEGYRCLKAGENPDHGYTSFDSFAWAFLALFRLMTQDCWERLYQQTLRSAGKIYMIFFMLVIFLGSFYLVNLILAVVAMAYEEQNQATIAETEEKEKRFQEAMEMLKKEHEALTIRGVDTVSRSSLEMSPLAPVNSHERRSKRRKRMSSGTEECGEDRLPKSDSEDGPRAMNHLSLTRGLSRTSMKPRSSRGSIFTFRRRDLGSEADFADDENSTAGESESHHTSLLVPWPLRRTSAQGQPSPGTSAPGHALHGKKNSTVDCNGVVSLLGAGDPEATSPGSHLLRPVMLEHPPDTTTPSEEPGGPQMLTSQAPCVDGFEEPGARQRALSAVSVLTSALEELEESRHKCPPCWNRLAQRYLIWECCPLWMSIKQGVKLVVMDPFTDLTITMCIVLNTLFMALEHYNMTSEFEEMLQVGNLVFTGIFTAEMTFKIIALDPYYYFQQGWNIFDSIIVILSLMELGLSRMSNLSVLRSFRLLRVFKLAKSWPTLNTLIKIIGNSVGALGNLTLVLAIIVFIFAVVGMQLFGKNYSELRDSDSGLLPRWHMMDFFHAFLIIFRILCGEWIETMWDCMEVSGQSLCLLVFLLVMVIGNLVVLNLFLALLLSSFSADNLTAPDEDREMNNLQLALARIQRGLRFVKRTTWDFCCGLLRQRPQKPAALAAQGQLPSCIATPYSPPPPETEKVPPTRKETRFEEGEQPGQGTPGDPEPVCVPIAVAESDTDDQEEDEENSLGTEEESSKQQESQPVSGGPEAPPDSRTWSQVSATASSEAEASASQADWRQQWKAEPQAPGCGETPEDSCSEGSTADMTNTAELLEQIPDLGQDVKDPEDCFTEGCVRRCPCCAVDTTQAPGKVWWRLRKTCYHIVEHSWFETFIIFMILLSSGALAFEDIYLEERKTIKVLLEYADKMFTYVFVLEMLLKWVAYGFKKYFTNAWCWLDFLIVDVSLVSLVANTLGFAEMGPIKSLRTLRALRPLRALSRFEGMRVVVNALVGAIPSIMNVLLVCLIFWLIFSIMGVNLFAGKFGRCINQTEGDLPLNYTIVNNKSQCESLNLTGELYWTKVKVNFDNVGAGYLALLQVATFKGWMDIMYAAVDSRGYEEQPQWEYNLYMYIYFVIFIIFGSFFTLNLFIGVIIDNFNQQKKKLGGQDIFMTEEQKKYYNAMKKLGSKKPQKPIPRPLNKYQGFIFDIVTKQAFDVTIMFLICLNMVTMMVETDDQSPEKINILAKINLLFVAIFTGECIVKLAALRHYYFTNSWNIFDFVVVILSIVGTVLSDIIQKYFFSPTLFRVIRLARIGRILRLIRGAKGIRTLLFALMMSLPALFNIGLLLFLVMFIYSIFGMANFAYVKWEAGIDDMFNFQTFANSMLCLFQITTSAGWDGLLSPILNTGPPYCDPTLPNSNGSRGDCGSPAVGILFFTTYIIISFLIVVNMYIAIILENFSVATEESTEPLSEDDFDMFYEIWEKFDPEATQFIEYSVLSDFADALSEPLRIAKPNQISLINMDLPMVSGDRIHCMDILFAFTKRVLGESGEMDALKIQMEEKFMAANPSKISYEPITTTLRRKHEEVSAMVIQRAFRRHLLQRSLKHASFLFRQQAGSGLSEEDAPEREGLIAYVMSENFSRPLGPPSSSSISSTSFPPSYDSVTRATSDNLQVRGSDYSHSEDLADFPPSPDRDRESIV
T2 sequence (Q99250 whole entry): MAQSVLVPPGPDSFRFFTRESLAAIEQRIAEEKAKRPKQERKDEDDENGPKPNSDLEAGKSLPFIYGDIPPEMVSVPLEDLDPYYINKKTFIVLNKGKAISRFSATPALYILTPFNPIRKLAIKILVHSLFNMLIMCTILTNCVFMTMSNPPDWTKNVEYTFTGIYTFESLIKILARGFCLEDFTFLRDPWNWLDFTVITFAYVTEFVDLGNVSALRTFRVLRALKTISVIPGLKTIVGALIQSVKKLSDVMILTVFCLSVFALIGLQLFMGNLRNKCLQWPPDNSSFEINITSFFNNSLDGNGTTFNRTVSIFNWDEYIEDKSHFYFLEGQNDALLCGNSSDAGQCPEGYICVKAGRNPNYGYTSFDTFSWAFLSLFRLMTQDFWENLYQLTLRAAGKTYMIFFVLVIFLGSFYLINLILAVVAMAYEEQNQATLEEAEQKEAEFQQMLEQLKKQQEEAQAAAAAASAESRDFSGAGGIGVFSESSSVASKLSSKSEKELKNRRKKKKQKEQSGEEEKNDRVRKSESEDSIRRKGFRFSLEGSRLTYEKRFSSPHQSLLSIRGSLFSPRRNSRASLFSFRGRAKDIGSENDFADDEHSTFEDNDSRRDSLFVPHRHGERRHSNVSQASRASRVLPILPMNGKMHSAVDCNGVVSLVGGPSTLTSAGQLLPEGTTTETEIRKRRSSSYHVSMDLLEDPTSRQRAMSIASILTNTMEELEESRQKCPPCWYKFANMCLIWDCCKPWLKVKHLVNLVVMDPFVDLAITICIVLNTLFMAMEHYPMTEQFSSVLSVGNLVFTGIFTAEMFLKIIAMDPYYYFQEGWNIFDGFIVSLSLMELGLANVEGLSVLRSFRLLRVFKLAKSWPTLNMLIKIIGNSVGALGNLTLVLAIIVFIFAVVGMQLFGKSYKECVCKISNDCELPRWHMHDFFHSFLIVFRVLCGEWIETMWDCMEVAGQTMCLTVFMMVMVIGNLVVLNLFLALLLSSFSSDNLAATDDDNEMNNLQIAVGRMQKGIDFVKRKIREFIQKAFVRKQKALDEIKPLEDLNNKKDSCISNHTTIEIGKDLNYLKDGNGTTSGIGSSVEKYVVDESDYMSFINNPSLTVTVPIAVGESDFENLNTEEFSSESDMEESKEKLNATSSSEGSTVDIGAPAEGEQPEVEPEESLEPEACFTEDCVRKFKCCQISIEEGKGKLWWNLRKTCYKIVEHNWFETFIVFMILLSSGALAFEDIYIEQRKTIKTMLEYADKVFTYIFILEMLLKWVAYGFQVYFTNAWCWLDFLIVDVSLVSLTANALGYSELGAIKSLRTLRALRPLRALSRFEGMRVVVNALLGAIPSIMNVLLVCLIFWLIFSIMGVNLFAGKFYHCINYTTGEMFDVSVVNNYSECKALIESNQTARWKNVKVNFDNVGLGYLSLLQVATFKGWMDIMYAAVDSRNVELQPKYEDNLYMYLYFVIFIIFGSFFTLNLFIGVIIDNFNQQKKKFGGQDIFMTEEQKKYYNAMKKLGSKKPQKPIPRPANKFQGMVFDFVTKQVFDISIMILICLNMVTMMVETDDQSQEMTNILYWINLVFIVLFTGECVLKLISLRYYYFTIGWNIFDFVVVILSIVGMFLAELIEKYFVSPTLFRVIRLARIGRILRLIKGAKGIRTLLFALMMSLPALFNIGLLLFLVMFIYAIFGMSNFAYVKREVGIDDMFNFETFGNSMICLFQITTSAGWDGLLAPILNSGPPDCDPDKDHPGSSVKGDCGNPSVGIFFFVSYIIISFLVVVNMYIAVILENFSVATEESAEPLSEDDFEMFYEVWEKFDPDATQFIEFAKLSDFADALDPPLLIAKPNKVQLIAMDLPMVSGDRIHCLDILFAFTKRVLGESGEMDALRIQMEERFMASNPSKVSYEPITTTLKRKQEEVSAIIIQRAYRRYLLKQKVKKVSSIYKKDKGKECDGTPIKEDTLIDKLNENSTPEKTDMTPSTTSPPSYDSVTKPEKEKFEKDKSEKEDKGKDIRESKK

Compound `O=c1c2cc(-c3ccc(OC(F)(F)F)cc3)ccc2nnn1CCOc1nccc(-c2noc(C3CC3)n2)n1` [II-60, 3-(2-(4-(5-cyclopropyl-1,2,4-oxadiazol-3-yl)pyrimidin-2-yloxy)ethyl)-6-(4-(trifluoromethoxy)phenyl)benzo[d][1,2,3]triazin-4(3H)-one] had an MS Dog THalf in data set [1] of 356 min. The MS Rat THalf in data set [2] is greater than 395 min. Moreover, the inhibition at 1 µM in data set [3] (setting [6]) and in data set [3] (setting [7]) was 32% throughout. This compound also registered an MS Human THalf in data set [4] of 362 min. Also, on hERG potassium channel, the “HERG*” value is reported as 31%.
On to `O=c1c2cc(-c3ccc(OC(F)(F)F)cc3)ccc2nnn1Cc1nnc(C2CC2)s1` [II-66, 3-((5-cyclopropyl-1,3,4-thiadiazol-2-yl)methyl)-6-(4-(trifluoromethoxy)phenyl)benzo[d][1,2,3]triazin-4(3H)-one], for which the MS Dog THalf in data set [1] was greater than 395 min. Moreover, the MS Rat THalf in data set [2] was found to be 181 min. Moreover, the inhibition at 1 µM in data set [3] (setting [6]) and in data set [3] (setting [7]) was 39% each time. In data set [4], this compound returned an MS Human THalf greater than 395 min. Also, the “HERG*” value on hERG potassium channel turned out to be 23%.
In data set [1], `Cc1noc(Cn2ncc3ccc(-c4ccc(OC(F)(F)F)cc4)cc3c2=O)n1` [III-2, 2-((3-methyl-1,2,4-oxadiazol-5-yl)methyl)-7-(4-(trifluoromethoxy)phenyl)phthalazin-1(2H)-one] came in with an MS Dog THalf of 68 min. The compound further displayed an MS Rat THalf in data set [2] of 222 min. Also, the inhibition at 1 µM at hNav1.1 was determined as 27.6%; in data set [3] (setting [6]), 40%; in data set [3] (setting [7]), 40%; at Human Nav1.2, 5%. The same compound displayed an MS Human THalf in data set [4] of 333 min.
Turning to `O=c1c2cc(-c3ccc(OC(F)(F)F)cc3)ccc2cnn1Cc1ncc(Cl)cn1` [III-35, 2-((5-chloropyrimidin-2-yl)methyl)-7-(4-(trifluoromethoxy)phenyl)phthalazin-1 (2H)-one], the MS Dog THalf in data set [1] stood at 85 min. The MS Rat THalf in data set [2] was determined as 296 min. In addition, the inhibition at 1 µM in data set [3] (setting [6]) and in data set [3] (setting [7]) was 38% each time. Further, in data set [4], the MS Human THalf is greater than 395 min. Further, the “HERG*” value at hERG potassium channel is 17%.
`C[C@@H]1CC[C@@H](C)N1C(=O)N1CCc2ccc(-c3ccc(C(F)(F)F)cc3)cc2C1` [IX-105]: the MS Dog THalf in data set [1] was 74 min. The same compound gave an MS Rat THalf in data set [2] of 14 min. Also, the inhibition at 1 µM in data set [3] (setting [6]) is 43%; in data set [3] (setting [7]), 43%; in data set [5] (% inhibition at 1 μM, tonic block, read-out: NAv1.5*-PEAK-TB-) it was 6%; in data set [5] (% inhibition at 1 μM, use-dependent block 3 Hz, read-out: NAv1.5*-PEAK-UDB-3 HZ-) it was 3%; in data set [5] (setting [8]), 6%; in data set [5] (setting [9]), 3%. In data set [4], this compound returned an MS Human THalf of 35 min.
As for `O=c1c2cc(C#Cc3ccc(OC(F)(F)F)cc3)ccc2nnn1CCOc1ncccn1` [VII-1, 3-(2-(pyrimidin-2-yloxy)ethyl)-6-((4-(trifluoromethoxy)phenyl)ethynyl)benzo[d][1,2,3]triazin-4(3H)-one], the MS Dog THalf in data set [1] was determined as 114 min. In data set [2], this compound showed an MS Rat THalf of 44 min. Further, the inhibition at 1 µM in data set [3] (setting [7]) came out at 55%; in data set [5] (setting [8]), 7%; in data set [5] (setting [9]) it was 1%. In addition, the MS Human THalf in data set [4] is greater than 395 min.
